Measured values reported in patent US20160074467A1, “TREATMENT OF AGING EFFECTS BY GONADOTROPIN-RELEASING HORMONE, NEUROGENESIS OR BRAIN IKK BETA/NF-KAPPAB INHIBITION” (ALBERT EINSTEIN COLLEGE OF MEDICINE, INC., priority 2013, published 2016).
Ends that are not written are not given here.

Assays:
[1] = system: aging-related cognitive decline; experiment: Daily subcutaneous GnRH therapy: cognition; type: in vivo, C57BL/6 mice; details: old MBH-ctrl and MBH-IKK-β mice; peripheral (s.c.) GnRH daily, 5 weeks; FIG. 6i
Procedure: (§1) For animal GnRH therapy, mice were subcutaneously injected with GnRH (Sigma) at the dose of 2 ng per mouse on a daily basis for a period of 5-8 weeks. The Institutional Animal Care and Use Committee at the Albert Einstein College of Medicine approved all the procedures. Body weight and food intake were measured regularly using a laboratory scale. The grip test was performed to measure muscle endurance using the method as similarly described in the literature^36,37, using a homemade square grid with a small mesh size to allow mice to hang for longer time. In brief, a mouse was lifted by the tail and placed on a homemade square grid (1-cm mesh size). The grid was then inverted 30.5 cm over a soft pad, and the mouse was allowed to hang by paws for a maximum of 5 min. The time that the mouse was able to hang was recorded during a 5-min test period.
Cognitive behavioral tests. […]
Hidden-platform training. […] Mice were expected to find the location of the invisible platform, and measured for latency to reach the platform, distance travelled to reach the platform, path efficiency, time spent in and distance travelled in each quadrant as well as total distance and mean swim speed.
Probe trial. […] Mice were measured for the amount of time spent in all quadrants, distance and number of times that mice crossed the location of the former platform, and total distance and mean swim speed. […]

[2] = system: BrdU-labelled cells in the MBH and dentate gyrus; experiment: BrdU labelling survival assay with i.c.v. GnRH in old mice; type: in vivo; details: old C57BL/6 mice; GnRH 1 ng per day i.c.v.; 7 days of daily BrdU injections, thirty-day tracking; FIG. 6d, e
Procedure: (§2) Immunostaining, histology and western blot. Mice under anaesthesia were perfused with 4% paraformaldehyde, and brains were removed, post-fixed in 4% paraformaldehyde, and infiltrated in 20-30% sucrose. Brain sections were made at 10-μm thickness via a cryostat, blocked with serum, penetrated with Triton-X 100, treated overnight at 4° C. with primary antibody, followed by reaction with fluorescence-conjugated secondary antibody (Jackson), and imaged under a confocal microscope. For BrdU staining, sections were pre-treated with 1 M HCl for 30 min at 37° C., followed by 5-min treatment with 0.1 M sodium borate, pH 8.5. Primary antibodies included rabbit anti-Iba-1 (Wako), rabbit anti-GFAP (Millipore), mouse anti-TNF-α (Abcam), mouse anti-NeuN (Millipore), and goat anti-Cre antibody (Santa Cruz). For Nissl staining, freshly isolated mice brains were fixed in 4% paraformaldehyde in PBS for overnight at 4° C. The fixed whole brains were then subjected to cryosectioning coronally, and frozen sections were stained to detect Nissl body by using the NovaUltra Nissl stain kit (IHCWORLD) according to the manufacturer's instruction.
(§3) Serial brain sections across the MBH were made at 20 μm thickness, and every five sections were represented by one section with staining and cell counting. […]

[3] = system: neurogenesis in the MBH and dentate gyrus; experiment: BrdU labelling neurogenesis assay with i.c.v. GnRH in old mice; type: in vivo; details: old C57BL/6 mice; GnRH 1 ng per day i.c.v. (third ventricle); single BrdU injection, 7 days; vs vehicle; FIG. 6a-c
Procedure: as §2, §3

[4] = system: aging physiology and histology; experiment: Daily subcutaneous GnRH therapy: aging physiology and histology (muscle endurance, skeletal muscle fibers, dermal thickness); type: in vivo, C57BL/6 mice
Procedure: as §1
Tissue histology. Skeletal muscles (quadriceps) and dorsal skin were dissected from mice, fixed in 10% neutralized formalin at 4° C. overnight, and embedded into paraffin. Paraffin sections were prepared at 5-μm thickness and subjected to haematoxylin and eosin staining. Images were collected using an Axioskop II light microscope (Zeiss) and analyzed using Image J.

## gonadotropin-releasing hormone (QHWSYGLRPG; ends and bridges not checked; UniProt P01148 24-33, looked up) [GnRH, gonadotropin-releasing hormone (GnRH), obtained from Sigma]
[1]
  aging-related cognitive decline: amelioration of aging-related cognitive decline
[2]
  survival of BrdU-labelled cells in MBH and dentate gyrus: significantly survived
[3]
  aging-diminished neurogenesis (BrdU-labelled cells in hypothalamus and hippocampus): substantially reversed
[4]; MBH-IκB-α mice treated with GnRH, data not shown
  anti-aging phenotype: did not further enhance the anti-aging phenotype
[4]; old MBH-IKK-β mice, GnRH 2 ng per mouse s.c. daily, 5 weeks, FIG. 6f-h
  pro-aging phenotype (muscle endurance, muscle fibers, dermal thickness): abrogated the pro-aging phenotype
[4]; old MBH-ctrl mice, GnRH 2 ng per mouse s.c. daily, 5 weeks, FIG. 6f-h
  magnitude of aging histology (muscle endurance, muscle fibers, dermal thickness): reduced the magnitude of aging histology
